Experimental data taken from patent publication US20230123601A1, “PHARMACEUTICAL COMBINATION OF ANTIVIRAL AGENTS TARGETING HBV AND/OR AN IMMUNE MODULATOR FOR TREATMENT OF HBV” (priority 2019, published 2023).

Test system: HBV
Assay: HBsAg levels in serum of AAV/HBV mice (CLIA)
Type: in vivo, C57BL/6 mice
Parameters: HBsAg levels in serum (Average ± SD): scale not given here
Source text: The AAV-HBV mouse model is generated by injecting C57BL/6 mice with recombinant adeno-associated virus harboring a replicable HBV genome (AAV-HBV). The rAAV8-1.3 HBV ayw virus stock was purchased from Beijing FivePlus Molecular Medicine Institute (Beijing, China). The animals (male, aged 4-5 weeks upon arrival) were purchased from SLAC Laboratory Animal Co. Ltd (Shanghai, China), acclimatized in the animal facility for 5-7 days, and then injected with 1×10^11 vector genome of AAV-HBV (diluted in 200 μL of PBS) through the tail vein. Persistence expression of HBV genome can be established after three weeks, with high levels of HBV viral markers including HBV DNA, HBsAg, and HBeAg in mouse serum. With stable HBV viremia and competent immune system of the C57BL/6 mice, the AAV-HBV mouse model was used to evaluate the in vivo anti-HBV efficacy of the compounds. The in-life part of the AAV-HBV study was conducted through contracted service at Covance Pharmaceutical Research and Development (Shanghai) Co. Ltd. (Covance Shanghai) and the post-life analysis using the serum was performed internally at Roche Innovation Center Shanghai (RICS).
Seven days before compound treatment, blood samples were collected for serum preparation (˜15 μL), and based on HBV DNA, HBsAg levels in serum and body weight, the AAV-HBV infected animals were stratified into the different treatment groups.
Saline (Group 01) and anti-HBV ASO of CMP ID NO: 15_1 at 1.5 or 7.5 mg/kg were dosed sub subcutaneously once a week during Day 0-49 on Days 0, 7, 14, 21, 28, 35, 42 and 49. TLR7 agonist of CMP ID NO: VI 100 mg/kg was administered by oral gavage once every other day during Day 0-55 (QOD) or once weekly during Day 0-49 on Days 0, 7, 14, 21, 28, 35, 42 and 49 (QW). The animals were weekly bled via retro-orbital sinus for sample collection throughout the study.
Serum HBsAg levels were determined in the serum of infected AAV-HBV mouse using the HBsAg chemoluminescence immunoassay (CLIA) (Autobio diagnostics Co. Ltd., Zhengzhou, China, Cat. no. CL0310-2), according to the manufacturer's protocol. Briefly, 50 μl of serum was transferred to the antibody coated microtiter plate and 50 μl of enzyme conjugate reagent was added. The plate was incubated for 60 min on a shaker at room temperature before all wells were washed six times with washing buffer using an automatic washer. 25 μl of substrate A and then 25 μl of substrate B was added to each well. The plate was incubated for 10 min at RT before luminescence was measured using an Envision luminescence reader (Perkin Elmer). HBsAg is given in the unit IU/ml; where 1 ng HBsAg=1.14 IU.
To evaluate the combination of the anti-HBV ASO and the TLR7 agonist in an in vivo system, a mouse model of chronic HBV infection was used. In the AAV/HBV mouse model described in the Materials and Method a persistent HBV infection is established resulting in expression of viral markers (HBsAg, HBeAg, HBV DNA) detectable in plasma. The effect on these viral markers upon treatment with the anti-HBV ASO of CMP ID NO: 15_1 (table 2, and FIG. 4) dosed at 1.5 mg/kg or 7.5 mg/kg and the TLR7 agonist of CMP ID NO: VI (table 3) dosed with […] every other day (QOD) or once weekly (QW) in monotherapy or in combination has been evaluated.

CC[C@H](OC(C)=O)[C@@H]1C[C@@H](O)[C@H](n2c(=O)sc3cnc(N)nc32)O1 [CMP ID NO: VI, [(1S)-1-[(2S,4R,5R)-5-(5-amino-2-oxo-thiazolo[4,5-d]pyrimidin-3-yl)-4-hydroxy-tetrahydrofuran-2-yl]propyl] acetate]
HBsAg levels in serum (Average ± SD) (D0, 15_1 1.5 mg/kg weekly, VI 100 mg/kg QOD, or combination of both): 4.14 ± 0.37
HBsAg levels in serum (Average ± SD) (D0, 15_1 1.5 mg/kg weekly, VI 100 mg/kg QW, or combination of both): 4.07 ± 0.44
HBsAg levels in serum (Average ± SD) (D0, 15_1 7.5 mg/kg weekly, VI 100 mg/kg QOD, or combination of both): 4.14 ± 0.37
HBsAg levels in serum (Average ± SD) (D0, 15_1 7.5 mg/kg weekly, VI 100 mg/kg QW, or combination of both): 4.07 ± 0.44
HBsAg levels in serum (Average ± SD) (D7, 15_1 1.5 mg/kg weekly, VI 100 mg/kg QOD, or combination of both): 3.68 ± 1.03
HBsAg levels in serum (Average ± SD) (D7, 15_1 1.5 mg/kg weekly, VI 100 mg/kg QW, or combination of both): 3.72 ± 0.85
HBsAg levels in serum (Average ± SD) (D7, 15_1 7.5 mg/kg weekly, VI 100 mg/kg QOD, or combination of both): 3.68 ± 1.03
HBsAg levels in serum (Average ± SD) (D7, 15_1 7.5 mg/kg weekly, VI 100 mg/kg QW, or combination of both): 3.72 ± 0.85
HBsAg levels in serum (Average ± SD) (D14, 15_1 1.5 mg/kg weekly, VI 100 mg/kg QOD, or combination of both): 3.11 ± 1.35
HBsAg levels in serum (Average ± SD) (D14, 15_1 1.5 mg/kg weekly, VI 100 mg/kg QW, or combination of both): 3.52 ± 0.96
HBsAg levels in serum (Average ± SD) (D14, 15_1 7.5 mg/kg weekly, VI 100 mg/kg QOD, or combination of both): 3.11 ± 1.35
HBsAg levels in serum (Average ± SD) (D14, 15_1 7.5 mg/kg weekly, VI 100 mg/kg QW, or combination of both): 3.52 ± 0.96
HBsAg levels in serum (Average ± SD) (D21, 15_1 1.5 mg/kg weekly, VI 100 mg/kg QOD, or combination of both): 2.62 ± 1.41
HBsAg levels in serum (Average ± SD) (D21, 15_1 1.5 mg/kg weekly, VI 100 mg/kg QW, or combination of both): 3.07 ± 1.22
HBsAg levels in serum (Average ± SD) (D21, 15_1 7.5 mg/kg weekly, VI 100 mg/kg QOD, or combination of both): 2.62 ± 1.41
HBsAg levels in serum (Average ± SD) (D21, 15_1 7.5 mg/kg weekly, VI 100 mg/kg QW, or combination of both): 3.07 ± 1.22
HBsAg levels in serum (Average ± SD) (D28, 15_1 1.5 mg/kg weekly, VI 100 mg/kg QOD, or combination of both): 2.21 ± 1.28
HBsAg levels in serum (Average ± SD) (D28, 15_1 1.5 mg/kg weekly, VI 100 mg/kg QW, or combination of both): 2.65 ± 1.37
HBsAg levels in serum (Average ± SD) (D28, 15_1 7.5 mg/kg weekly, VI 100 mg/kg QOD, or combination of both): 2.21 ± 1.28
HBsAg levels in serum (Average ± SD) (D28, 15_1 7.5 mg/kg weekly, VI 100 mg/kg QW, or combination of both): 2.65 ± 1.37
HBsAg levels in serum (Average ± SD) (D35, 15_1 1.5 mg/kg weekly, VI 100 mg/kg QOD, or combination of both): 1.78 ± 1.18
HBsAg levels in serum (Average ± SD) (D35, 15_1 1.5 mg/kg weekly, VI 100 mg/kg QW, or combination of both): 2.49 ± 1.29
HBsAg levels in serum (Average ± SD) (D35, 15_1 7.5 mg/kg weekly, VI 100 mg/kg QOD, or combination of both): 1.78 ± 1.18
HBsAg levels in serum (Average ± SD) (D35, 15_1 7.5 mg/kg weekly, VI 100 mg/kg QW, or combination of both): 2.49 ± 1.29
HBsAg levels in serum (Average ± SD) (D42, 15_1 1.5 mg/kg weekly, VI 100 mg/kg QOD, or combination of both): 1.57 ± 0.97
HBsAg levels in serum (Average ± SD) (D42, 15_1 1.5 mg/kg weekly, VI 100 mg/kg QW, or combination of both): 2.28 ± 1.28
HBsAg levels in serum (Average ± SD) (D42, 15_1 7.5 mg/kg weekly, VI 100 mg/kg QOD, or combination of both): 1.57 ± 0.97
HBsAg levels in serum (Average ± SD) (D42, 15_1 7.5 mg/kg weekly, VI 100 mg/kg QW, or combination of both): 2.28 ± 1.28
HBsAg levels in serum (Average ± SD) (D49, 15_1 1.5 mg/kg weekly, VI 100 mg/kg QOD, or combination of both): 1.63 ± 0.86
HBsAg levels in serum (Average ± SD) (D49, 15_1 1.5 mg/kg weekly, VI 100 mg/kg QW, or combination of both): 1.9 ± 1.07
HBsAg levels in serum (Average ± SD) (D49, 15_1 7.5 mg/kg weekly, VI 100 mg/kg QOD, or combination of both): 1.63 ± 0.86
HBsAg levels in serum (Average ± SD) (D49, 15_1 7.5 mg/kg weekly, VI 100 mg/kg QW, or combination of both): 1.90 ± 1.07
HBsAg levels in serum (Average ± SD) (D56, 15_1 1.5 mg/kg weekly, VI 100 mg/kg QOD, or combination of both): 1.56 ± 0.77
HBsAg levels in serum (Average ± SD) (D56, 15_1 1.5 mg/kg weekly, VI 100 mg/kg QW, or combination of both): 2.13 ± 1
HBsAg levels in serum (Average ± SD) (D56, 15_1 7.5 mg/kg weekly, VI 100 mg/kg QOD, or combination of both): 1.56 ± 0.77
